Usually IC50 stands for the concentration that gives 50% inhibition.

For test [1], the target named is T1, glucosylceramide synthase (Homo sapiens, UniProt Q16739).
T1 construct: Microsomes were isolated from A375 human melanoma cells; endogenous in cells; host or cells: A375 human melanoma cells (microsomal fraction, 100,000 g pellet)
T1 sequence (Q16739 1-394): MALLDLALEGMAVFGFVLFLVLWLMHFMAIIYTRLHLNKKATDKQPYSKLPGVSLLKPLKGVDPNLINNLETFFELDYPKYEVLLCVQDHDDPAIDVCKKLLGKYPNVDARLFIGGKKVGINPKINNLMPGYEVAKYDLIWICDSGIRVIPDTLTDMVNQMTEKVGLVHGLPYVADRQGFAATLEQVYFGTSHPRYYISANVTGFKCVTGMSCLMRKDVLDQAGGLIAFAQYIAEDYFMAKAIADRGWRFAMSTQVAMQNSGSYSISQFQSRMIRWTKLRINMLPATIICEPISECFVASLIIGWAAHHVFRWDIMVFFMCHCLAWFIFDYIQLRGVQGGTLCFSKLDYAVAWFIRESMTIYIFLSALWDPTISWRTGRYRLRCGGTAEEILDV
In words: microsomal assay measuring conversion of ceramide to glucosylceramide by HPLC (GCS IC50). The following applies: concentration causing 50% inhibition of glucosylceramide synthase activity. In kind it is biochemical. An outline of the steps: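 IC50 is the compound concentration halving glucosylceramide synthase activity. Activity was measured in microsomes, with HPLC quantifying glucosylceramide formed from ceramide.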

The test system of test [2] is GM3 expression on the cell surface, B16 mouse melanoma cells. Description: cell based phenotypic assay, cell surface GM3 by antibody mediated immunofluorescence, B16 (GM3 B16 IC50). Particulars: Mus musculus, B16 mouse melanoma cells; 50% inhibition of GM3 expression on the cell surface; read-out: GM3 B16 IC50. An outline of the steps:
(§1)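 Both lines undergo the phenotypic GM3 assay, and viability is recorded from that same cell-based run.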

The subject of test [3] is GM3 expression on the cell surface, C32 human melanoma cells. Description: cell based phenotypic assay, cell surface GM3 by antibody mediated immunofluorescence, C32 (GM3 C32 IC50). Particulars: Homo sapiens, C32 human melanoma cells; 50% inhibition of GM3 expression on the cell surface; read-out: GM3 C32 IC50. Put shortly: as §1
Test [4] has as its system B16 mouse melanoma cells. In words: cell viability in the B16 cell-based assay (Viability, B16 IC50). The following applies: Mus musculus, B16, B16 cells; concentration causing 50% cell death; values greater than 10 represent a lack of cell death; read-out: Viability, B16 IC50. Put shortly: (§2)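 Viability readouts were run alongside the GM3 cell-surface assay in the same B16 and C32 cultures. A figure above 10 indicates no cell death.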

Test [5] relates to C32 human melanoma cells. In words: cell viability in the C32 cell-based assay (Viability, C32 IC50). The following applies: Homo sapiens, C32, C32 cells; concentration causing 50% cell death; values greater than 10 represent a lack of cell death; read-out: Viability, C32 IC50. Put shortly:
as §2

Each structure is given as a SMILES string.

Take `COCc1ccc(-c2ccnc(N3CCC(C)(C(=O)NC4(C)CCN5CCC4CC5)CC3)n2)cc1` (stereo not drawn) [Example 96, 1-(4-(4-(Methoxymethyl)phenyl)pyrimidin-2-yl)-4-methyl-N-(4-methyl-1-azabicyclo[3.2.2]nonan-4-yl)piperidine-4-carboxamide]: the IC50 in test [1] is 7 nM; in test [2], 145 nM; in test [3], 0.804 nM; in test [4] it was 3390 nM; in test [5], 1000 nM.
On to `COCCOCc1ccc(-c2ccnc(N3CCC(C)(C(=O)NC4(C)CCN5CCC4CC5)CC3)n2)cc1` (stereo not drawn) [Example 97, 1-(4-(4-((2-Methoxyethoxy)methyl)phenyl)pyrimidin-2-yl)-4-methyl-N-(4-methyl-1-azabicyclo[3.2.2]nonan-4-yl)piperidine-4-carboxamide], for which the IC50 in test [1] is 13.4 nM; in test [2], 285 nM; in test [3], 1.36 nM; in test [4], at least 10000 nM; in test [5], 1000 nM.
The like results for `COCCOCc1ccc(-c2ccnc(N3CCC(C)(C(=O)NC4(C)CN5CCC4CC5)CC3)n2)cc1` (stereo not drawn) [Example 98, 1-(4-(4-((2-Methoxyethoxy)methyl)phenyl)pyrimidin-2-yl)-4-methyl-N-(3-methylquinuclidin-3-yl)piperidine-4-carboxamide] were, in that order, 76.9 nM, 1910 nM, 8.13 nM, 8190 nM and 1000 nM.
For `CC1(NC(=O)C2(O)CCN(c3nccc(-c4ccc(F)cc4)n3)CC2)CCN2CCC1CC2` (stereo not drawn) [Example 99, 1-(4-(4-Fluorophenyl)pyrimidin-2-yl)-4-hydroxy-N-(4-methyl-1-azabicyclo[3.2.2]nonan-4-yl)piperidine-4-carboxamide], the IC50 came out at 2.23 nM in test [1]; 12 nM in test [2]; 0.0552 nM in test [3]; 3780 nM in test [4]; 46.4 nM in test [5].
The like results for `COC1(C(=O)NC2(C)CCN3CCC2CC3)CCN(c2nccc(-c3ccc(F)cc3)n2)CC1` (stereo not drawn) [Example 100, 1-(4-(4-Fluorophenyl)pyrimidin-2-yl)-4-methoxy-N-(4-methyl-1-azabicyclo[3.2.2]nonan-4-yl)piperidine-4-carboxamide] were, in that order, 3.68 nM, 26.5 nM, 0.109 nM, 1900 nM and 1000 nM.
In the same order, the values of `COCCCOc1ccc(-c2ccnc(N3CCC(OC)(C(=O)NC4(C)CCN5CCC4CC5)CC3)n2)cc1` (stereo not drawn) [Example 101, 4-Methoxy-1-(4-(4-(3-methoxypropoxy)phenyl)pyrimidin-2-yl)-N-(4-methyl-1-azabicyclo[3.2.2]nonan-4-yl)piperidine-4-carboxamide] are 3.38 nM, 78.5 nM, 0.436 nM, 2030 nM and 1000 nM.
The like results for `COC1(C(=O)NC2(C)CCN3CCC2CC3)CCN(c2ncc(F)c(-c3ccc(OCCF)cc3)n2)CC1` (stereo not drawn) [Example 102, 1-(5-Fluoro-4-(4-(2-fluoroethoxy)phenyl)pyrimidin-2-yl)-4-methoxy-N-(4-methyl-1-azabicyclo[3.2.2]nonan-4-yl)piperidine-4-carboxamide] were, in that order, 1.03 nM, 92.9 nM, 0.258 nM, 2850 nM and 100 nM.
As to `COC1(C(=O)NC2(C)CCN3CCC2CC3)CCN(c2nccc(-c3ccc(OCCF)cc3)n2)CC1` (stereo not drawn) [Example 103, 1-(4-(4-(2-Fluoroethoxy)phenyl)pyrimidin-2-yl)-4-methoxy-N-(4-methyl-1-azabicyclo[3.2.2]nonan-4-yl)piperidine-4-carboxamide], the IC50 was determined as 3.65 nM in test [1]; 73.8 nM in test [2]; 0.29 nM in test [3]; 3110 nM in test [4]; 316 nM in test [5].
In the same order, the values of `COCCOc1cnc(N2CCC(C(=O)NC3(C)CCN4CCC3CC4)CC2)nc1-c1ccc(F)cc1` (stereo not drawn) [Example 104, 1-(4-(4-Fluorophenyl)-5-(2-methoxyethoxy)pyrimidin-2-yl)-N-(4-methyl-1-azabicyclo[3.2.2]nonan-4-yl)piperidine-4-carboxamide] are 25.1 nM, 51.3 nM, 3 nM, at least 10000 nM and 1000 nM.
In the same order, the values of `COCCOc1cc(-c2ccc(F)cc2)nc(N2CCC(C(=O)NC3(C)CCN4CCC3CC4)CC2)n1` (stereo not drawn) [Example 105, 1-(4-(4-Fluorophenyl)-6-(2-methoxyethoxy)pyrimidin-2-yl)-N-(4-methyl-1-azabicyclo[3.2.2]nonan-4-yl)piperidine-4-carboxamide] are 10.5 nM, 272 nM, 2 nM, 3660 nM and 1000 nM.
Regarding `CC1(NC(=O)C2CCN(c3cc(-c4ccc(F)cc4)ccn3)CC2)CCN2CCC1CC2` (stereo not drawn) [Example 106, 1-(4-(4-Fluorophenyl)pyridin-2-yl)-N-(4-methyl-1-azabicyclo[3.2.2]nonan-4-yl)piperidine-4-carboxamide], the IC50 worked out at 0.858 nM in test [1]; 15.3 nM in test [2]; 0.095 nM in test [3]; 6970 nM in test [4]; 9020 nM in test [5].
As to `CC1(NC(=O)C2CCN(c3cncc(-c4ccc(F)cc4)c3)CC2)CCN2CCC1CC2` (stereo not drawn) [Example 107, 1-(5-(4-Fluorophenyl)pyridin-3-yl)-N-(4-methyl-1-azabicyclo[3.2.2]nonan-4-yl)piperidine-4-carboxamide], the IC50 in test [1] was 4.76 nM; in test [2] it was 299 nM; in test [3], 0.935 nM; in test [4] it was at least 10000 nM; in test [5] it was 78.5 nM.
The like results for `CC1(NC(=O)C2CCN(c3ccnc(-c4ccc(F)cc4)c3)CC2)CCN2CCC1CC2` (stereo not drawn) [Example 108, 1-(2-(4-Fluorophenyl)pyridin-4-yl)-N-(4-methyl-1-azabicyclo[3.2.2]nonan-4-yl)piperidine-4-carboxamide] were, in that order, 80.8 nM, 1080 nM, 54.1 nM, 5650 nM and 3160 nM.
The like results for `CN(C(=O)C1CCN(c2nccc(-c3ccc(F)cc3)n2)CC1)C1CN2CCC1CC2` (stereo not drawn) [Example 109, 1-(4-(4-Fluorophenyl)pyrimidin-2-yl)-N-methyl-N-(quinuclidin-3-yl)piperidine-4-carboxamide] were, in that order, 40.1 nM, 2230 nM, 8.99 nM, 9530 nM and 3160 nM.
Regarding `O=C(OC1CCN2CCC1CC2)C1CCN(c2nccc(-c3ccc(F)cc3)n2)CC1` (stereo not drawn) [Example 110, 1-Azabicyclo[3.2.2]nonan-4-yl 1-(4-(4-fluorophenyl)pyrimidin-2-yl)piperidine-4-carboxylate], the IC50 in test [1] worked out at 1.22 nM; in test [2], 528 nM; in test [3], 2.39 nM; in test [4] it was 3810 nM; in test [5] it was 1000 nM.
In the same order, the values of `COCCCOc1ccc(-c2nc(N3CC(C(=O)NC4(C)CCN5CCC4CC5)C3)ncc2F)cc1` (stereo not drawn) [Example 111, 1-(5-Fluoro-4-(4-(3-methoxypropoxy)phenyl)pyrimidin-2-yl)-N-(4-methyl-1-azabicyclo[3.2.2]nonan-4-yl)azetidine-3-carboxamide] are 2 nM, 119 nM, 0.19 nM, 3650 nM and 1000 nM.
In the same order, the values of `CC1(NC(=O)C2CN(c3ncc(F)c(-c4ccc(F)cc4)n3)C2)CCN2CCC1CC2` (stereo not drawn) [Example 112, 1-(5-Fluoro-4-(4-fluorophenyl)pyrimidin-2-yl)-N-(4-methyl-1-azabicyclo[3.2.2]nonan-4-yl)azetidine-3-carboxamide] are 7.37 nM, 122 nM, 0.238 nM, 7240 nM and 316 nM.
As for `CC1(NC(=O)C2CN(c3nccc(-c4ccc(F)cc4)n3)C2)CCN2CCC1CC2` (stereo not drawn) [Example 113, 1-(4-(4-Fluorophenyl)pyrimidin-2-yl)-N-(4-methyl-1-azabicyclo[3.2.2]nonan-4-yl)azetidine-3-carboxamide], the IC50 was 8.31 nM in test [1]; 546 nM in test [2]; 0.884 nM in test [3]; at least 10000 nM in test [4]; 316 nM in test [5].
